Experimental data published in patent publication US10093651B2, “Ghrelin O-acyl transferase inhibitors” (Eli Lilly and Company, priority 2015, dated 2018).
Values belong to the compound of their own block, whether it stands above or below them.

What was measured:
human GOAT = human GOAT (Homo sapiens (Human), UniProt Q96T53); assay: In vitro cell free human GOAT enzymatic assay; format: biochemical; conditions: purified GOAT enzyme, ELISA readout of acyl-ghrelin
Description: In Vitro Cell Free Human GOAT Enzymatic Assay
Human GOAT gene (Accession number: NM 001100916) is subcloned to pAN51 baculoviral expression vector. Baculovirus stock is prepared following the Bac-to-Bac Protocol provided by the vendor, Invitrogen, California, USA. Five mililiters of human GOAT baculoviral stock are added to 500 mL SDf cells in HyQ SFX-Insect™ media (HyClone catalog number SF130278.02) at the density of 1×10^6 cells per milliliter in a 2 L Erlenmeyer flask. The flask with human GOAT gene infected Sf9 cells is put on a plate shaker at 120 rpm at 28° C. for 48 hours. After 48 hours incubation, cells are centrifuged at 1,000×g for 10 min at 4° C. The cell pellets are collected and stored at −80° C. in a freezer until ready for further processing.
Preparation of Microsomal Membrane of GOAT Enzyme for the Enzymatic Assay:
One gram cell pellets are suspended in 9 mL chilled homogenization buffer (50 mM Tris-HCl, 250 mM sucrose, adjusted to pH 7.5 and sterile filtered through 0.2 μm Millipore filter). The cell suspension is transferred to a Dounce glass homogenizer. Cell pellets are homogenized with 40 strokes on ice. The homogenate is centrifuged at 3,000 rpm in a Beckman swing bucket rotor at 4° C. for 10 min to remove unbroken cells. The supernatant is collected and centrifuged at 40,000×g for 1 hour at 4° C. The resulting membrane pellet is suspended in the homogenization buffer using a Dounce glass homogenizer and stored at −20° C. in the freezer for the assay. For long term storage of the human GOAT enzyme membrane preparation, the suspended membrane is stored in a −80° C. freezer.
Human GOAT Enzymatic Assay Protocol:
Prepare test compounds in DMSO to make up a 0.2 mM stock solution. Serially dilute the stock solution in DMSO to obtain a ten-point dilution curve with final compound concentrations ranging from 10 μM to 0.5 nM in a 96-well round-bottom plate. Prepare enzyme and substrate solutions in assay buffer (0.02% TWEEN™-20 in 50 mM Tris, pH 7.5/250 mM sucrose/1 mg/mL BSA/10 mM EDTA). Add diluted compound (1 μL) to each well of row A to N of a corresponding low protein binding 384 well plate. Add human GOAT substrate mix (10 μL), consisting of human desacyl-ghrelin-biotin (CPC Scientific Inc., 6.0 μM final), octanoyl-coenzyme A (CoA) (Sigma, 60 μM final) and an AG specific antibody (WO 2006/091381)([…] final), to the compounds. Add GOAT-His/sf9 enzyme preparation, that has been prepared in assay buffer (9 μL), to each well of the plate containing substrate and test compounds resulting in a final concentration of 0.01 μg/mL to initiate the reaction. Incubate the mixture for 1 hour at RT on a gently rotating oscillator. Add 4M guanidine hydrochloride (20 μL) to all wells, mix, and incubate for 3 hours to stop the reaction.
Prepare ELISA plates (STREPTAVIDIN SPECTRAPLATE™ 384, Perkin Elmer) by blocking with 2% Heat-Inactivated FBS in PBS (40 μL) (Invitrogen) blocking buffer for 3 hours. Aspirate the blocking buffer from ELISA plate and add blocking buffer (23 μL) to columns 1-24, rows A-N. Reserve rows O and P for the acylghrelin standard curve. Add the reaction mix (2 μL) to the ELISA plates. Prepare a 10 point standard curve (biotin-labeled octanoyl-ghrelin) by serial 2× dilution in blocking buffer containing 0.2M Guanidine hydrochloride starting at 2.5 pM. Incubate the reaction mixture or biotin-labeled AG standard in the ELISA plate overnight at 4° C. […]

GOAT = GOAT (Mus musculus (Mouse), UniProt P0C7A3); assay: In vivo dose dependent 3 day BID study for GOAT inhibitor (plasma AG and UAG by ELISA); design: species or system male C57BL/6 mice; conditions: mice, 3 days; for reduction in AG to total ghrelin ratio: compared to vehicle-treated control animals; for decrease of plasma AG / increase of UAG: vs vehicle; for AG (% of control) / AG/Total-ghrelin (% of vehicle control) / UAG (% of vehicle control) / increase of UAG: plasma
Description: Comparing the change in the ratio of AG to total ghrelin in the compound treated group and that of the vehicle treated group reflects the degree of GOAT enzyme inhibition in vivo, due to the dynamic processing of UAG to AG by the GOAT enzyme. In the in vivo pharmacodynamic studies herein, the levels of AG and UAG in plasma and stomach in the vehicle and compound treated groups are measured by ELISA specifically to these two analytes. The total ghrelin level of each sample is computed as the sum of AG and UAG by these ELISA measurements. The ratio of AG to total ghrelin is defined by the level of AG in each sample divided by the level of total ghrelin in the same sample. The levels of AG, UAG and ratio of AG to total ghrelin in the vehicle treated group is computed and set as 100%. The relative change of these parameters in the compound treated group is then computed to determine the effectiveness of the test compound.
In Vivo Dose Dependent 3 Day BID Study for GOAT Inhibitor:E
Purchase male C57BL/6 mice from Harlaan (Indianapolis, Ind.) at 9 weeks of age. House the mice individually in a temperature-controlled (24° C.) facility with a 12 hours light/dark cycle (lights on 2200 h), and allow free access to a standard rodent chow (diet 2014, Harlan) and water. Typically, use the mice when they are 10-13 weeks of age at the time of the study. On day 0 of the experiment, randomize the mice into treatment groups (N=7/group) so each group has similar mean body weights. On day 1 and day 2, treat the animals with vehicle (1% hydroxyethylcellulose, 0.25% TWEEN™ 80, 0.05% antifoam) or test compound prepared in the vehicle as suspension at various dosages by oral gavage at 7 am and 7 pm. On day 3, fast the animals, move them into clean cages and dose with vehicle or the test compound again at 8 am by oral gavage. That same day at 1 pm, sacrifice the animals by decapitation to collect blood. For details of blood collection and plasma treatments see Blood collection and Extraction of Ghrelin from Plasma section below.
Collect approximately 600 μL blood into a pre-weighed EDTA tube containing 600 μL (defined as Vpreservative) freshly-prepared preservative (4 mM PEFABLOC® [4-(2-aminoethyl) benzenesulfonyl fluoride hydrochloride], 72 mM NaCl, 58 mM NaF, 0.032 N hydrochloric acid, pH 3.0) and mix immediately. Weigh the tube again and keep on ice. To accurately determine the exact blood volume of each sample using this blood collection procedure, the weight of the blood for each mouse is computed using the following equation: Weight of Blood=(Weight of the tube containing Blood+preservative)−(Weight of the tube containing preservative) Blood volume (Vblood)=(Weight of blood)/1.06
Note, the density of rodent blood is assumed as 1.06 g/mL.
Within 15 minutes after the blood collection, samples are centrifuged at 5000 rpm at 4° C. for 8 min. Remove plasma (650 μL) to a 5 mL glass tube containing 1 N hydrochloric acid (65 μL), mix and keep on ice.
Ghrelin Extraction by SEP-PAK® Column:
AG and UAG are extracted from plasma using SEP-PAK®_C18 column to remove interference prior to performing the ELISA. The solid phase extraction of AG and UAG peptides by SEP-PAK®_C18 columns can be performed on a vacuum manifold (Waters Corp) or using a peristaltic pump. The sample SEP-PAK®_column extraction procedure is independently applied to the plasma sample obtained from each individual mouse. The general extraction protocol is described as follows.
All solutions used for the entire protocol of the SEP-PAK® column extraction should be at ice cold condition. Wet SEP-PAK®_columns (WAT054960, Waters Corp, Milford Mass.) with 99.9% ACN/0.1% TFA (1 mL of solution of 100 mL ACN/0.1 mL TFA). […] Once liquid is removed from the column, stop the pressure. Equilibrate the columns with 3% ACN/0.1% TFA (I mL of 97 mL water, 3 mL ACN, 0.1 mL TFA). […] Dilute approximately 650 μL acidified plasma (defined as Vplasma added to column) to 1.4 mL ice cold 0.1% TFA. […]

GOAT, sequence (P0C7A3 whole entry): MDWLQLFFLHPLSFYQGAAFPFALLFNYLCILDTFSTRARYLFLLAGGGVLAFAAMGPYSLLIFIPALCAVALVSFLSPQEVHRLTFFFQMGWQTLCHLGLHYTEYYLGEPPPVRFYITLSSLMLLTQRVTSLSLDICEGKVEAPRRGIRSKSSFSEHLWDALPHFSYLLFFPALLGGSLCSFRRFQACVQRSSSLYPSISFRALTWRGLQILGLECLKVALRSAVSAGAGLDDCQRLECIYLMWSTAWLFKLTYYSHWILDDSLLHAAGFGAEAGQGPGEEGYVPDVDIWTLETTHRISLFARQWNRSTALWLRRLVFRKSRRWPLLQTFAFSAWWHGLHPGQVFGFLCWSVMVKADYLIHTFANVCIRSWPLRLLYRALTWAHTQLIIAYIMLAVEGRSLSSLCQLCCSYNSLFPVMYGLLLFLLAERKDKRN
human GOAT, sequence (Q96T53 whole entry): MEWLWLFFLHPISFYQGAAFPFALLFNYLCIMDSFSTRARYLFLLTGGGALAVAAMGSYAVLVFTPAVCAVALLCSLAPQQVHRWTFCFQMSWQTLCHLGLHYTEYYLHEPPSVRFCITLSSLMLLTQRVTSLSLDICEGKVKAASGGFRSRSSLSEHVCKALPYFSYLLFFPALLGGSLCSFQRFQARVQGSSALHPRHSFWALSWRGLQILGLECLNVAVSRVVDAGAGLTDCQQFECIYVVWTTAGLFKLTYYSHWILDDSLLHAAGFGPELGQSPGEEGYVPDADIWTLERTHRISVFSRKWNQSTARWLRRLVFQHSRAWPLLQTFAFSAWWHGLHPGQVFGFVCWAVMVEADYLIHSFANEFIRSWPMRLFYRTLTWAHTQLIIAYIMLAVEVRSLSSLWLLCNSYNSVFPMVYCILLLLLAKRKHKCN

Compound: COc1ccccc1C(=O)N[C@@H](C)C(=O)N1CCC(CCc2c(C)nc(C(F)(F)F)nc2N)CC1 [Example 17, N-[(1S)-2-[4-[2-[4-Amino-6-methyl-2-(trifluoromethyl)pyrimidin-5-yl]ethyl]-1-piperidyl]-1-methyl-2-oxo-ethyl]-2-methoxy-benzamide]
IC50 (human GOAT): 420 nM

Compound: Cc1nc(C(F)(F)F)nc(N)c1CCC1CCN(C(=O)[C@H](C)NC(=O)CO)CC1 [Example 18, N-[(1S)-2-[4-[2-[4-Amino-6-methyl-2-(trifluoromethyl)pyrimidin-5-yl]ethyl]-1-piperidyl]-1-methyl-2-oxo-ethyl]-2-hydroxy-acetamide]
IC50 (human GOAT): 276 nM

Compound: COC(=O)N[C@@H](C)C(=O)N1CCC(CCc2c(C)nc(C(F)(F)F)nc2N)CC1 [Example 20, Methyl-[(1S)-2-[4-[2-[4-amino-6-methyl-2-(trifluoromethyl)pyrimidin-5-yl]ethyl]-1-piperidyl]-1-methyl-2-oxo-ethyl]carbamate]
IC50 (human GOAT): 615 nM

Stronger by IC50 (human GOAT), values ahead:

IC50 (human GOAT): 69.5 ± 0.6 nM
reduction in AG to total ghrelin ratio (GOAT; 0.1 mg/kg): 57%
decrease of plasma AG (GOAT; 0.1 mg/kg): 40%
reduction in AG to total ghrelin ratio (GOAT; 0.3 mg/kg): 62%
decrease of plasma AG (GOAT; 0.3 mg/kg): 60%
reduction in AG to total ghrelin ratio (GOAT; 1 mg/kg): 79%
decrease of plasma AG (GOAT; 1 mg/kg): 56%
reduction in AG to total ghrelin ratio (GOAT; 3 mg/kg): 82%
decrease of plasma AG (GOAT; 3 mg/kg): 63%
reduction in AG to total ghrelin ratio (GOAT; 10 mg/kg): 82%
decrease of plasma AG (GOAT; 10 mg/kg): 63%
AG (% of control) (GOAT; 0.1 mg/kg oral gavage BID): 60 ± 8 (n = 7) % of control
AG/Total-ghrelin (% of vehicle control) (GOAT; 0.1 mg/kg oral gavage BID): 43 ± 3 (n = 7) % of vehicle control
UAG (% of vehicle control) (GOAT; 0.1 mg/kg oral gavage BID): 210 ± 43 (n = 7) % of vehicle control
increase of UAG (GOAT; 0.1 mg/kg): 2.10 fold
AG (% of control) (GOAT; 0.3 mg/kg oral gavage BID): 40 ± 10 (n = 7) % of control
AG/Total-ghrelin (% of vehicle control) (GOAT; 0.3 mg/kg oral gavage BID): 28 ± 1 (n = 7) % of vehicle control
UAG (% of vehicle control) (GOAT; 0.3 mg/kg oral gavage BID): 222 ± 54 (n = 7) % of vehicle control
increase of UAG (GOAT; 0.3 mg/kg): 2.22 fold
AG (% of control) (GOAT; 1 mg/kg oral gavage BID): 44 ± 6 (n = 14) % of control
AG/Total-ghrelin (% of vehicle control) (GOAT; 1 mg/kg oral gavage BID): 21 ± 1 (n = 14) % of vehicle control
UAG (% of vehicle control) (GOAT; 1 mg/kg oral gavage BID): 357 ± 30 (n = 14) % of vehicle control
increase of UAG (GOAT; 1 mg/kg): 3.57 fold
AG (% of control) (GOAT; 3 mg/kg oral gavage BID): 37 ± 9.6 (n = 14) % of control
AG/Total-ghrelin (% of vehicle control) (GOAT; 3 mg/kg oral gavage BID): 18 ± 5 (n = 14) % of vehicle control
UAG (% of vehicle control) (GOAT; 3 mg/kg oral gavage BID): 349 ± 41 (n = 14) % of vehicle control
increase of UAG (GOAT; 3 mg/kg): 3.49 fold
AG (% of control) (GOAT; 10 mg/kg oral gavage BID): 37 ± 9.9 (n = 7) % of control
AG/Total-ghrelin (% of vehicle control) (GOAT; 10 mg/kg oral gavage BID): 18 ± 3 (n = 7) % of vehicle control
UAG (% of vehicle control) (GOAT; 10 mg/kg oral gavage BID): 378 ± 59 (n = 7) % of vehicle control
increase of UAG (GOAT; 10 mg/kg): 3.78 fold
Compound: Cc1nc(C(F)(F)F)nc(N)c1CCC1CCN(C(=O)[C@H](C)NC(=O)c2ccnn2C)CC1 [Example 2, N-[(1 S)-2-[4-[2-[4-Amino-6-methyl-2-(trifluoromethyl)pyrimidin-5-yl]ethyl]-1-piperidyl]-1-methyl-2-oxo-ethyl]-2-methyl-pyrazole-3-carboxamide]

IC50 (human GOAT): 55.7 nM
Compound: Cc1nc(C(F)(F)F)nc(N)c1CCC1CCN(C(=O)[C@H](C)NC(=O)c2nccnc2Cl)CC1 [Example 15, N-[(1S)-2-[4-[2-[4-Amino-6-methyl-2-(trifluoromethyl)pyrimidin-5-yl]ethyl]-1-piperidyl]-1-methyl-2-oxo-ethyl]-3-chloro-pyrazine-2-carboxamide]
